The values that follow come from patent US9303092B2, “Methamphetamine-like hapten compounds, linkers, carriers and compositions and uses thereof” (The Board of Trustees of the University of Arkansas, priority 2000, dated 2016).

The conditions of data set [1]: after intravenous (+)-methamphetamine; cited from earlier work.
The subject of data set [2] is discriminative stimulus effects of (+)-methamphetamine. Description: Drug discrimination in rats. Particulars: i.p., group III.
For data set [3] the test system is unchanged. Description: Drug discrimination in pigeons. The settings on record: i.m.
Experimental: The pigeons used in these experiments had performed in experiments previously.
Training continued for 40 min or until the pigeons had received 20 reinforcers, whichever occurred first. […] In the determination of cumulative dose-response curves, a dose of drug was administered and the pigeon was placed in the chamber for 10 min, after which the chamber and key lights were illuminated. The pigeon was tested for 5 min or until one food reinforcer had been delivered, whichever occurred first. Food was delivered following the completion of 20 responses on one of the two keys. After food had been delivered, or the session had timed out, the bird was removed from the chamber, a higher dose was administered, and the process was repeated.
Because only a few birds were still available for these experiments, the data for days 1-2 and days 7-8 were combined.
All doses are expressed as the salts.
The nature of data set [4]: (+)-Methamphetamine and (+)-amphetamine pharmacokinetic studies in serum and brain with and without mAb6H4. The settings on record: for AUC(0-t): male, Sprague-Dawley, rat, in vivo, Serum.
Experimental: This allowed the administration of approximately 100 μCi per rat by injection of 1 μl/g of rat body weight.
Male Sprague-Dawley rats were randomly placed into two groups. […] Ethyl ether was used for anesthesia so that hemodynamic stability could be maintained before animal sacrifice. Immediately after blood collection, the rats were decapitated and the brain was removed. The brain was rinsed with saline, weighed, and placed in liquid nitrogen within 3 min of decapitation. Hematocrit values were obtained for each animal. The blood was allowed to clot and serum was obtained after centrifugation. The serum and brain tissues were stored at −80° C. until analyzed.
The second group was the mAb-treatment group. All aspects of the experiment were same as those described for the control group, with the following exception. […] The mAb was given via the jugular venous catheter in an 8-ml volume at 2 ml/min. Because the experimental protocol was the same up until the mAb was administered, the time points before 30 min were not repeated in this group.
For serum analysis, 300 μl of guanidine HCl was added to 200-μl of each serum sample to denature the proteins. The samples were vortexed and placed on a gentle shaker for 30 min. […] After sample application, the cartridges were centrifuged at 230 g for 1 min, washed with 1 ml of water, and then centrifuged. […] Then, 1 ml of methanol:acetic acid (98:2) was added, followed by centrifugation.
A 200-μl aliquot was then added to 300 μl of 8 M guanidine HCl. The mixture was vortexed and gently shaked for 30 min. […] The mixture was vortexed, placed on ice for 5 min, and centrifuged at 12,500 g for 5 min.
Supernatants from the brain samples were applied to conditioned extraction cartridges and then centrifuged at 600 g for 4 min. The brain precipitates left over from the 12,500 g centrifugation were resuspended in 500 μl of water and centrifuged at 12,500 g for 3 min. The supernatants were then added to their respective extraction columns and centrifuged at 600 g for 4 min. This was followed by a 1-ml water wash, with another 4 min centrifugation at 600 g. Finally, the cartridges were placed in siliconized test tubes for sample collection. The elution process was as described for the serum samples.
After elution, the samples were taken to dryness over 3 h in a vacuum centrifuge (Savant Instruments, Inc., Farmingdale, N.Y.) with no heat or cryopumping.
The data were fit to both two- and three-compartment i.v. bolus models, with y (predicted concentration), 1/y, or 1/y^2 weighting. The best-fit line was chosen by visual inspection and analysis of the residuals. […] All pharmacokinetic analysis was performed with the use of WinNonlin V3.0 (Pharsight Corporation, Mountain View, Calif.).
Data set [5] concerns mAb6H4. Description: RIA binding specificity, relative potency to METH. Also noted: species or system mouse. The settings on record: RIA IC50 value for METH/RIA IC50 value for test ligand.
Data set [6] has as its system mAb6H8. Description: RIA binding specificity, relative potency to METH. Particulars: RIA IC50 value for METH/RIA IC50 value for test ligand. Also noted: species or system mouse.
In data set [7] the test system is mAb4G9. Description: RIA binding specificity, relative potency to METH. Also noted: species or system mouse. Particulars: RIA IC50 value for METH/RIA IC50 value for test ligand.
In data set [8] the test system is (+)-methamphetamine-induced locomotor activity. Briefly: (+)-Methamphetamine locomotor activity studies, rat overdose model, mAb at t=30 min. It counts as in vivo.
Experimental: The parameters of distance traveled (in centimeters or meters), number of rearing events, and time spent moving (in seconds) were individually quantified for each animal. […] Briefly, animals were placed in polyethylene chambers that contained a bedding of dark-gray clay. Animal behavior was videotaped, and the video images were digitized and quantitated in 4-min intervals by EthoVision software (Noldus Information Technology Inc., Sterling, Va.). The duration of drug action was calculated for each parameter starting at 30 min (time of treatment) and until the locomotor activity returned to baseline.
Rats were habituated to the behavioral monitoring chambers before the start of the experimental protocol. This was accomplished by placing the rats in the chambers for a minimum of 3 h per day for 4-6 consecutive days. […] The rats in each group were dosed every three days for a total of 10 days.
On day 1, all groups received saline followed at 30 min by mAb buffer to obtain baseline (non-drug-induced) behavior.
All control buffer and mAb solutions were administered via the jugular venous catheter in an 8-ml volume at 2 ml/min. Three days after the end of the experimental protocol for the 1-mg/kg group, locomotor activity from a second saline administration was monitored to determine whether any changes had occurred in baseline activity.
All other aspects of the protocol were as just described.
The test system of data set [9] is methamphetamine-induced locomotor activity. Briefly: Anti-METH Fab treatment of methamphetamine-induced behavioral effects. It counts as in vivo, rat. Particulars: 1 mg/kg iv methamphetamine, treatment at 30 min.
Experimental: Rats (n=4 per group) were administered saline (left most bar) or 1.0 mg/kg d-methamphetamine as an intravenous bolus dose. When drug effects were maximizing at 30 minutes, they were treated with saline (control), an anti-phencyclidine monoclonal antibody Fab fragment (anti-PCP), or an anti-d-methamphetamine-specific monoclonal antibody Fab fragment (anti-methamphetamine).
In data set [10] the test system is (+)methamphetamine induced effects. Briefly: Pretreatment with anti-(+)methamphetamine monoclonal antibody before 1 mg/kg (+)methamphetamine challenge. It is filed as in vivo, rat. Particulars: 1.0 mg/kg i.v. As for the experimental part:
Rats (n=7/group) were administered a dose of […] of anti-methamphetamine monoclonal antibody on day 1. The following day they were administered i.v. (+)methamphetamine (1.0 mg/kg) 3 days apart on two occasions to stabilize locomotor responses and to minimize sensitization.

For data set [11] the following is noted: from Riviere et al. (1999); cited from earlier work.
Data set [12] can be described thus: Preliminary studies of high i.v. (+)-methamphetamine doses.

By AUC(0-t) is commonly meant exposure summed from dosing to a finite time, without extrapolation to infinity. As for `CC(N)Cc1ccccc1` (single isomer, unassigned; (+)) [(+)AMP, (+)-amphetamine], the “time to peak plasma levels of (+)-amphetamine” value in data set [1] is at most 20 min. In addition, the “potency of (+)-methamphetamine and (+)-amphetamine as discriminative stimuli compared” value in data set [2] was “nearly equipotent”. For the same compound, the “potency of (+)-methamphetamine and (+)-amphetamine compared” value in data set [3] is “approximately equipotent”. Moreover, in data set [4] (Brain, 1-mol equivalent dose of mAb at 30 min), the “AUC38 min-[…] Treated” value was found to be 284 ng·h/g. Also, in [4] (Brain, without treatment), the “AUC38 min-[…] Control” value turned out to be 530 ng·h/g. Further, the AUC(0-t) stood at 55 ng·h/mL in [4] (AUC38 min-[…] Control, without treatment) and 73 ng·h/mL in data set [4] (AUC38 min-[…] Treated, 1-mol equivalent dose of mAb at 30 min).

For the compound `CC(N)Cc1ccc2c(c1)OCO2` (single isomer, unassigned; (+)) [(+)MDA], the “Relative Potency to METH, mAb6H4” value in [5] was determined as 0.001. In data set [6], the “Relative Potency to METH, mAb6H8” value stood at 0.024. For the same compound, the “Relative Potency to METH, mAb4G9” value in data set [7] worked out at 0.090.

`CNC(C)Cc1ccc2c(c1)OCO2` (single isomer, unassigned; (+)) [(+)MDMA, (+)-3,4-methylenedioxymethamphetamine]: the “Relative Potency to METH, mAb6H4” value in data set [5] stood at 1.25. In [6], the “Relative Potency to METH, mAb6H8” value was determined as 3.40. Further, the “Relative Potency to METH, mAb4G9” value in [7] was 0.29.

Take `CC(N)C(O)c1ccccc1` (single isomer, unassigned; (+)) [(+)phenylpropanolamine]: the “Relative Potency to METH, mAb6H4” value in data set [5] is below 0.001. Further, the “Relative Potency to METH, mAb6H8” value in data set [6] is reported as below 0.001. The “Relative Potency to METH, mAb4G9” value in data set [7] was below 0.001.

In the case of `CC(N)Cc1ccc2c(c1)OCO2` (single isomer, unassigned; (-)) [(−)MDA], the “Relative Potency to METH, mAb6H4” value in data set [5] is listed as below 0.001. Also, the “Relative Potency to METH, mAb6H8” value in data set [6] was below 0.001. The “Relative Potency to METH, mAb4G9” value in data set [7] is recorded as 0.002.

Take `CNC(C)Cc1ccc2c(c1)OCO2` (single isomer, unassigned; (-)) [(−)MDMA]: the “Relative Potency to METH, mAb6H4” value in [5] worked out at 0.007. The “Relative Potency to METH, mAb6H8” value in data set [6] worked out at 0.018. For the same compound, the “Relative Potency to METH, mAb4G9” value in data set [7] is recorded as 0.011.

On to `CNC(C)Cc1ccc(O)cc1` (centres unmarked) [4-OH-METH], for which the “Relative Potency to METH, mAb6H4” value in data set [5] was determined as 0.588. Further, in data set [6], the “Relative Potency to METH, mAb6H8” value was found to be 0.294. The “Relative Potency to METH, mAb4G9” value in data set [7] came to 0.106.

Regarding `CN[C@H](C)[C@@H](O)c1ccccc1` [(+)ephedrine], the “Relative Potency to METH, mAb6H4” value in data set [5] is below 0.001. In data set [6], the “Relative Potency to METH, mAb6H8” value was below 0.001. The “Relative Potency to METH, mAb4G9” value in [7] is given as below 0.001.

In the case of `CN[C@H](C)Cc1ccccc1` [(−)METH], the “Relative Potency to METH, mAb6H4” value in data set [5] came to 0.030. Moreover, in data set [6], the “Relative Potency to METH, mAb6H8” value is given as 0.011. The “Relative Potency to METH, mAb4G9” value in [7] is given as 0.102.

In the case of `CNC[C@H](O)c1cccc(O)c1` [/-phenylphrine], the “Relative Potency to METH, mAb6H4” value in data set [5] is recorded as 0.001. Further, the “Relative Potency to METH, mAb6H8” value in [6] was below 0.001. Moreover, the “Relative Potency to METH, mAb4G9” value in data set [7] was below 0.001.

With `NCCc1ccc(O)c(O)c1` [dopamine], the “Relative Potency to METH, mAb6H4” value in data set [5] is recorded as below 0.001. For the same compound, in [6], the “Relative Potency to METH, mAb6H8” value was below 0.001. Further, the “Relative Potency to METH, mAb4G9” value in data set [7] was below 0.001.

For the compound `CNC[C@H](O)c1ccc(O)c(O)c1` [epinephrine], in data set [5], the “Relative Potency to METH, mAb6H4” value is reported as below 0.001. In addition, the “Relative Potency to METH, mAb6H8” value in [6] is below 0.001. Moreover, the “Relative Potency to METH, mAb4G9” value in data set [7] was below 0.001.

Consider `NC[C@H](O)c1ccc(O)c(O)c1` [norepinepherine], for which the “Relative Potency to METH, mAb6H4” value in data set [5] is on record as below 0.001. Moreover, in data set [6], the “Relative Potency to METH, mAb6H8” value is below 0.001. In [7], the “Relative Potency to METH, mAb4G9” value was below 0.001.

For `NCCc1c[nH]c2ccc(O)cc12` [serotonin], the “Relative Potency to METH, mAb6H4” value in [5] was below 0.001. Moreover, in data set [6], the “Relative Potency to METH, mAb6H8” value is listed as below 0.001. The “Relative Potency to METH, mAb4G9” value in data set [7] was below 0.001.

In the case of `NCCc1ccc(O)cc1` [tyramine], the “Relative Potency to METH, mAb6H4” value in data set [5] is listed as below 0.001. Further, the “Relative Potency to METH, mAb6H8” value in data set [6] was below 0.001. Further, in data set [7], the “Relative Potency to METH, mAb4G9” value was below 0.001.

As to `NCCc1ccccc1` [β-phenylethylamine], in data set [5], the “Relative Potency to METH, mAb6H4” value is on record as below 0.001. For the same compound, in data set [6], the “Relative Potency to METH, mAb6H8” value is given as below 0.001. Moreover, the “Relative Potency to METH, mAb4G9” value in [7] worked out at 0.001.

Take (+)-methamphetamine [(+)METH]: the “duration of (+)-methamphetamine-induced locomotor effects following buffer” value is “approximately 1 h” in [8] (0.3-mg/kg dose) and around 2 h in data set [8] (1.0-mg/kg dose). Also, in data set [8] (3.0-mg/kg group), the “duration of drug action following buffer” value is reported as 4 h. In addition, in [9], the “duration of action / activity, distance traveled parameter” value is 116 ± 17 min. In addition, the “duration of action of (+)methamphetamine without the monoclonal antibody” value in data set [10] was “about 160 min”. The “t1/2dist of (+)-methamphetamine in serum” value in [11] is listed as 9 min. Moreover, the “potency of (+)-methamphetamine and (+)-amphetamine as discriminative stimuli compared” value in data set [2] is on record as “nearly equipotent”. Further, the “potency of (+)-methamphetamine and (+)-amphetamine compared” value in data set [3] is reported as “approximately equipotent”. In data set [12], this compound came in with a doses sometimes lethal of 10 mg/kg. Besides, the “i.v. doses that led to self-mutilation” value in [12] was at least 5.2 mg/kg.

As to (+)norpseudoephedrine, the “Relative Potency to METH, mAb6H4” value in [5] is given as below 0.001. In addition, the “Relative Potency to METH, mAb6H8” value in data set [6] is recorded as below 0.001. In addition, the “Relative Potency to METH, mAb4G9” value in data set [7] is on record as below 0.001.

For (+)pseudoephedrine, in data set [5], the “Relative Potency to METH, mAb6H4” value is below 0.001. Moreover, the “Relative Potency to METH, mAb6H8” value in data set [6] came out at 0.018. Moreover, the “Relative Potency to METH, mAb4G9” value in data set [7] was found to be 0.004.
